Laboratory results from PubChem BioAssay (NCI).
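Five compound concentrations were applied to cells in 96-well plates for 48 hours; endpoints were derived by simple linear interpolation of the resulting dose-response curve. TGI denotes the concentration required for complete inhibition of growth.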

Columns and labels:
Test in all cases: DTP human tumour cell line panel, 48 h
MALME-3M melanoma = test system: MALME-3M melanoma
M14 melanoma = test system: M14 melanoma
SK-MEL-5 melanoma = test system: SK-MEL-5 melanoma
NCI-H522 lung = test system: NCI-H522 lung
A549 NSCLC = test system: A549 NSCLC
SF-295 CNS = test system: SF-295 CNS
OVCAR-3 ovarian = test system: OVCAR-3 ovarian
NCI-H226 lung = test system: NCI-H226 lung
U251 CNS = test system: U251 CNS
HOP-18 NSCLC = test system: HOP-18 NSCLC
LXFL 529 NSCLC = test system: LXFL 529 NSCLC
KM12 colon = test system: KM12 colon
HT29 colon = test system: HT29 colon
DMS 273 small cell lung = test system: DMS 273 small cell lung
HOP-92 NSCLC = test system: HOP-92 NSCLC
OVCAR-8 ovarian = test system: OVCAR-8 ovarian
SNB-19 CNS = test system: SNB-19 CNS
IGROV1 ovarian = test system: IGROV1 ovarian
TK-10 renal = test system: TK-10 renal
NCI-H460 lung = test system: NCI-H460 lung
LOX IMVI melanoma = test system: LOX IMVI melanoma
HOP-62 NSCLC = test system: HOP-62 NSCLC
UACC-257 melanoma = test system: UACC-257 melanoma
RXF-631 renal = test system: RXF-631 renal
XF 498 CNS = test system: XF 498 CNS
KM20L2 colon = test system: KM20L2 colon
HCC-2998 colon = test system: HCC-2998 colon
SK-MEL-2 melanoma = test system: SK-MEL-2 melanoma
RPMI-8226 leukemia = test system: RPMI-8226 leukemia
EKVX NSCLC = test system: EKVX NSCLC
COLO 205 colon = test system: COLO 205 colon
SNB-75 CNS = test system: SNB-75 CNS
NCI-H23 lung = test system: NCI-H23 lung
HCT-116 colon = test system: HCT-116 colon
MOLT-4 leukemia = test system: MOLT-4 leukemia
SNB-78 CNS = test system: SNB-78 CNS
SK-MEL-28 melanoma = test system: SK-MEL-28 melanoma
SF-539 CNS = test system: SF-539 CNS
ACHN renal = test system: ACHN renal
UACC-62 melanoma = test system: UACC-62 melanoma
RXF 393 renal = test system: RXF 393 renal
DMS 114 small cell lung = test system: DMS 114 small cell lung
SF-268 CNS = test system: SF-268 CNS
786-0 renal = test system: 786-0 renal
DLD-1 colon = test system: DLD-1 colon
SR leukemia = test system: SR leukemia
UO-31 renal = test system: UO-31 renal
HCT-15 colon = test system: HCT-15 colon
OVCAR-5 ovarian = test system: OVCAR-5 ovarian
M19-MEL melanoma = test system: M19-MEL melanoma
SN12C renal = test system: SN12C renal
SK-OV-3 ovarian = test system: SK-OV-3 ovarian
SW-620 colon = test system: SW-620 colon

With `CC(=O)OC1(C(C)=O)CC2(c3ccccc3)OC1(c1ccccc1)c1ccccc12` (stereo not drawn) the TGI (MALME-3M melanoma) was greater than 100 µM, the TGI (M14 melanoma) was greater than 100 µM and the TGI (SK-MEL-5 melanoma) was 8.53 µM. It also gave a TGI (NCI-H522 lung) of 29.8 µM, a TGI (A549 NSCLC) greater than 100 µM and a TGI (SF-295 CNS) greater than 100 µM. The TGI (OVCAR-3 ovarian) was greater than 100 µM, the TGI (NCI-H226 lung) was 43.2 µM and the TGI (U251 CNS) was greater than 100 µM. For the same compound, the TGI (HOP-18 NSCLC) was greater than 100 µM, the TGI (LXFL 529 NSCLC) was greater than 100 µM and the TGI (KM12 colon) was greater than 100 µM. For the same compound, the TGI (HT29 colon) was greater than 100 µM, the TGI (DMS 273 small cell lung) was 22.2 µM and the TGI (HOP-92 NSCLC) was greater than 100 µM. For the same compound, the TGI (OVCAR-8 ovarian) was greater than 100 µM, the TGI (SNB-19 CNS) was greater than 100 µM and the TGI (IGROV1 ovarian) was 56.7 µM. For the same compound, the TGI (TK-10 renal) was greater than 100 µM, the TGI (NCI-H460 lung) was greater than 100 µM and the TGI (LOX IMVI melanoma) was greater than 100 µM. The TGI (HOP-62 NSCLC) was 61.5 µM, the TGI (UACC-257 melanoma) was 25.1 µM and the TGI (RXF-631 renal) was greater than 100 µM. For the same compound, the TGI (XF 498 CNS) was 33.3 µM, the TGI (KM20L2 colon) was greater than 100 µM and the TGI (HCC-2998 colon) was greater than 100 µM. It also gave a TGI (SK-MEL-2 melanoma) of 83.2 µM, a TGI (RPMI-8226 leukemia) of 96.8 µM and a TGI (EKVX NSCLC) greater than 100 µM. For the same compound, the TGI (COLO 205 colon) was 21.4 µM, the TGI (SNB-75 CNS) was greater than 100 µM and the TGI (NCI-H23 lung) was greater than 100 µM. The TGI (HCT-116 colon) was greater than 100 µM, the TGI (MOLT-4 leukemia) was 40.1 µM and the TGI (SNB-78 CNS) was greater than 100 µM. For the same compound, the TGI (SK-MEL-28 melanoma) was greater than 100 µM, the TGI (SF-539 CNS) was greater than 100 µM and the TGI (ACHN renal) was greater than 100 µM. For the same compound, the TGI (UACC-62 melanoma) was 43.8 µM, the TGI (RXF 393 renal) was 60.2 µM and the TGI (DMS 114 small cell lung) was 12.5 µM. It also gave a TGI (SF-268 CNS) greater than 100 µM, a TGI (786-0 renal) greater than 100 µM and a TGI (DLD-1 colon) greater than 100 µM. The TGI (SR leukemia) was greater than 100 µM, the TGI (UO-31 renal) was 80.1 µM and the TGI (HCT-15 colon) was greater than 100 µM. The TGI (OVCAR-5 ovarian) was greater than 100 µM, the TGI (M19-MEL melanoma) was 80.4 µM and the TGI (SN12C renal) was greater than 100 µM. The TGI (SK-OV-3 ovarian) was greater than 100 µM and the TGI (SW-620 colon) was greater than 100 µM.
